Data set [1] concerns TPA (Tumor Promoter) Stimulation of Mouse Epidermal DNA. Kind of data set: Inhibition of TPA stimulation of mouse epidermal DNA synthesis (3H-thymidine incorporation), oral. Type of data set: in vivo, mouse (ICR male). In a few lines:
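Shaved male ICR mice (7-9 weeks) got steroid orally in sesame oil (0.5 ml/mouse), then topical TPA (10 μg in acetone) 1 h later. After 20 h, i.p. 60 μCi ³H-thymidine 20 min before sacrifice; epidermal DNA labelling expressed as cpm per μg DNA (diphenylamine assay).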

The test system of data set [2] is rat uterus. In words: Uterotrophic test for estrogenic activity, oral. Type of data set: in vivo. To be noted: for Mean Uterine Weight: 3 days, n = 6; for estrogenic activity (in words): rat uterotrophic test. From the text:
Uterotrophic Test for Estrogenic Activity. Compound 16 vs. DHEA and Estradiol-benzoate. Compounds Given by Oral Administration.
(§1) Twenty-two day old rats were obtained from Charles River Laboratories. Animals were used at 29 days of age. Test steroids were suspended by homogenization in sesame oil. Rats were orally intubated at 1-2 P.M. for 3 days with a test steroid in sesame oil or with sesame oil alone (control). On the 4th day the animals were killed and the uteri were removed and weighed.

Data set [3] relates to DMBA-initiated and TPA-promoted skin papilloma formation in mice. The settings on record: mouse, in vivo; cited from earlier work.
Data set [4] relates to DMBA produced papillomas and carcinomas. To be noted: topical; cited from earlier work.
Data set [5] has as its system TPA stimulation of 3H-thymidine incorporation in epidermis. In words: Inhibition of TPA stimulation of 3H-thymidine incorporation in epidermis, topical steroid. Type of data set: in vivo, mouse (A/J). On the procedure:
Tumor promoters, such as TPA, stimulate hyperplasia and DNA synthesis when applied to the skin, and it is believed that this stimulation is an important step in the enhancement of tumorigenesis.
Incorporation of ^3 H-thymidine into A/J mouse epidermal DNA was determined as described in Pashko, L. L., Schwartz, A. G., Abou-Gharbia, M. and Swern, D. (1981), Inhibition of DNA synthesis in mouse epidermis and breast epithelium by dehydroepiandrosterone and related steroids, Carcinogenesis, 2, 717-721. Values are mean±SD for 3 separately treated mice in each group 20 hours after TPA application. DHEA or testosterone was added topically in 0.2 ml acetone one hour before TPA addition.
Background: Incorporation of labelled thymidine or its analogues reports DNA synthesis.

For data set [6], the system named is [3H]DMBA binding to skin DNA. Kind of data set: [3H]DMBA binding to skin DNA, oral steroid. Type of data set: in vivo, mouse (male A/J). On the procedure: Male A/J mice were orally intubated with steroid suspended in sesame oil (0.5 ml/mouse) at the indicated dose. Mice not receiving steroid were given sesame oil alone. Food restricted mice received approximately 60% of food of Ad libitum fed for two weeks. One hour after oral intubation, topical [^3 H]DMBA was applied to the skin, and the amount bound to DNA was determined 12 hours later as described in Table 4.
Male A/J mice were orally intubated with steroid suspended in sesame oil (0.5 ml/mouse) at the indicated dose. Mice not receiving steroid were given sesame oil alone. One hour after oral intubation, topical [^3 H]DMBA was applied to the skin, and the amount bound to DNA was determined 12 hours later as described in Table 4.

The test system of data set [7] is rat uterus. Kind of data set: Uterotrophic test, subcutaneous (Compound 2 vs. DHEA). Type of data set: in vivo. The settings on record: n = 4 or 5. On the procedure:
as §1
Compound 2 vs. DHEA. Compounds Administered by Subcutaneous Injection
Steroids were dissolved in 2 ml ethanol and brought up to 5 ml volume with propylene glycol. Concentrations were such that 1 μl/gm body weight delivered the indicated dose.

Data set [8] relates to [3H]DMBA binding to skin DNA. In words: [3H]DMBA binding to skin DNA, oral steroid. To be noted: four weeks treatment with 400 mg/kg. Type of data set: in vivo, mouse (male A/J).
The subject of data set [9] is C57BL/KsJ-db/db mice. The settings on record: 0.4% of the diet; cited from earlier work.
Data set [10] deals with many different cell lines in culture. To be noted: 10^-5 M to 10^-4 M; cited from earlier work.
In data set [11] the test system is HeLa cell strain, TCRC-2. To be noted: HeLa TCRC-2; cited from earlier work.
Data set [12] relates to breast, lung, and colon tumors. To be noted: approximately 400 mg/kg daily, long-term; cited from earlier work.
Data set [13] relates to 3H-thymidine incorporation in mouse epidermis. To be noted: in vivo; cited from earlier work.
Data set [14] relates to cholesterol. To be noted: mouse, in vivo; cited from earlier work.
Data set [15] has as its system New Zealand Black (NZB) mice. The settings on record: long-term treatment; cited from earlier work.
In data set [16] the test system is rat uterus. The settings on record: 60 mg/kg s.c. for 3 days, sexually immature rats; cited from earlier work.

We go through two compounds from patent US5804576A, “Derivatives of 5-androsten-17-ones and 5-androstan-17-ones” (Research Corporation Technologies, Inc., priority 1986, dated 1998).

Several values for one entry are separate records, joined by “and”; a condition that tells them apart may be missing. Equal entries are not always repeated. Entries after “also recorded” stand apart in the source; their conditions may differ.

With `C[C@H]1CC[C@@]2(C)C(=CC[C@@H]3[C@@H]2CC[C@]2(C)C(=O)CC[C@@H]32)C1` [Compound 16, 3β-methyl-5-androsten-17-one], the “activity relative to DHEA (TPA stimulation of epidermal DNA synthesis)” value in data set [1] (oral dose-response, as active as DHEA) was “about 3 X”. Moreover, the “Mean Uterine Weight” value was 189 ± 14 Mgs in data set [2] (200 mg/kg oral) and 174 ± 20 Mgs in [2] (400 mg/kg oral). Moreover, the “estrogenic activity (in words)” value is listed as “Neither compounds 16 nor 2 are estrogenic; also recorded: devoid of estrogenic activity in the rat uterotrophic test” in data set [2] and “without any apparent estrogenic effect” in data set [2] (listed as compound 16). For the same compound, the “inhibition of DMBA-initiated and TPA-promoted skin papilloma formation (in words)” value in data set [3] is “inhibit”. Further, the “inhibition of DMBA produced papillomas and carcinomas (in words)” value in data set [4] was “inhibits DMBA produced papillomas and carcinomas”.

On to `C[C@]12CC[C@H](O)CC1=CC[C@@H]1[C@@H]2CC[C@]2(C)C(=O)CC[C@@H]12` [DHEA, 3β-Hydroxy-5-androst-en-17-one, reference compound], for which the “blocking the TPA stimulation in DNA synthesis rate (in words)” value in [1] (200 mg/kg or 100 mg/kg oral) is “not at 200 mg/kg or 100 mg/kg”; in data set [1] (400 mg/kg oral), “active at blocking the TPA stimulation in DNA synthesis rate at 400 mg/kg”. Also, the “TPA stimulation in 3H-thymidine incorporation (in words)” value in data set [1] (oral, single administration) was “does not inhibit the TPA stimulation in epidermal ^3 H-thymidine incorporation to a degree comparable; also recorded: inactive”. For the same compound, in [5], the “TPA stimulation of epidermal DNA synthesis (in words)” value was “abolishes this stimulation”. Further, the “SPECIFIC ACTIVITY ([3H]DMBA bound to skin DNA)” value in [6] (400 mg/kg p.o., 12 hours) is 73.1 ± 16.5 cpm/ug DNA and 92 ± 17.6 cpm/ug DNA. In addition, the “3H-DMBA binding to skin DNA (in words)” value was “does not inhibit ^3 H-DMBA binding to skin DNA; also recorded: inactive” in data set [6] (oral, single administration) and “does inhibit ^3 H-DMBA binding to skin DNA” in data set [8]. In addition, the “Mean Uterine Weight” value was found to be 261 ± 23 Mgs in data set [2] (400 mg/kg oral), 152 ± 17 Mgs in data set [7] (10 mg/kg s.c.) and 290 ± 72 Mgs in data set [7] (60 mg/kg s.c.). Also, the “estrogenic activity (in words)” value in [2] was “significantly estrogenic”. In [9], the “hypoglycemic effect (in words)” value is reported as “marked hypoglycemic effect”. The “lifespan (in words)” value in data set [9] is “significantly prolonged their lifespan”. The “inhibition of DMBA-initiated and TPA-promoted skin papilloma formation (in words)” value in [3] is listed as “inhibit”. Moreover, in [4], the “inhibition of DMBA produced papillomas and carcinomas (in words)” value is “inhibits DMBA produced papillomas and carcinomas”. Moreover, in data set [10], the “growth of cell lines in culture (in words)” value is reported as “slows the growth of many different cell lines in culture”. The “sensitivity to growth inhibition (in words)” value in data set [11] is recorded as “particularly sensitive to DHEA-induced growth inhibition”. The “tumor development (in words)” value in data set [12] is “inhibit the development of breast, lung, and colon tumors”. Further, in data set [13], the “3H-thymidine incorporation in mouse epidermis (in words)” value is on record as “antagonizes the capacity of the tumor promoter”. For the same compound, in [14], the “anti-hypercholesterolemic effect (in words)” value is listed as “anti-hypercholesterolemic effect”. The “rate of development of the autoimmune anemia (in words)” value in data set [15] is given as “significantly inhibits the rate of development of the autoimmune anemia”. Also, the “uterine enlargement (in words)” value in data set [16] is listed as “produces uterine enlargement”.
